Test systems include SNB-19; UACC-257; DU-145; CCRF-CEM; NCI-H460; MDA-MB-435; SF-539; OVCAR-3; U-251; CAKI-1; TK-10; NCI-H226; 786-0; KM12; M14; A549; SW-620; SR; Malme-3M; HCT-116.
Common to all, as to assay: NCI tumour cell line growth inhibition, 48 h

Structures can show the parent of a compound that is named as a salt.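 Cultured in 96-well plates, cells were exposed to test compound for 48 hours across five concentrations. GI50 = concentration required for 50% inhibition of growth.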 Active and inactive are the calls of the source. Cut-off read from the data, not from the text of the source: active = GI50 up to about 1.1 µM and inactive = higher.

With `O=C1C(=Cc2ccco2)C(=O)C2CCCCC12` (stereo not given), the GI50 in the experiment with SNB-19, in the experiment on UACC-257, in the experiment on DU-145, with CCRF-CEM, in the experiment on NCI-H460 and in the experiment with MDA-MB-435 was > 100 µM (inactive) each time. For the same molecule, the GI50 with SF-539, in the experiment with OVCAR-3, with U-251, in the experiment with CAKI-1, with TK-10 and with NCI-H226 was > 100 µM (inactive) in each case. For the same molecule, the GI50 with 786-0, in the experiment on KM12, in the experiment on M14, with A549, with SW-620 and in the experiment on SR was > 100 µM (inactive) each time. The GI50 in the experiment with Malme-3M and with HCT-116 was > 100 µM (inactive) throughout.
In the case of `COc1ccc2nc3cc(Cl)ccc3c(NCCCNCCCNc3c4ccc(Cl)cc4nc4ccc(OC)cc34)c2c1`, the GI50 in the experiment on SNB-19 is < 0.0179 µM (active); with UACC-257 it was 0.251 µM (active); with DU-145 it was 0.0373 µM (active); with CCRF-CEM, < 0.01 µM (active); in the experiment on NCI-H460, 0.0102 µM (active); with MDA-MB-435, 0.0374 µM (active). Further, the GI50 is 0.0157 µM (active) in the experiment with SF-539; 0.162 µM (active) in the experiment on OVCAR-3; 0.0137 µM (active) in the experiment with U-251; 0.0156 µM (active) in the experiment on CAKI-1; 0.0741 µM (active) in the experiment on TK-10; < 0.01 µM (active) with NCI-H226. Also, the GI50 in the experiment on 786-0 is < 0.01 µM (active); in the experiment with KM12, 0.0208 µM (active); with M14, 0.0266 µM (active); in the experiment on A549, 0.0132 µM (active); with SW-620, 0.0131 µM (active); in the experiment on SR, < 0.01 µM (active). For the same molecule, the GI50 was 0.0604 µM (active) in the experiment with Malme-3M and < 0.01 µM (active) in the experiment on HCT-116.
Take `CC[C@@H]1C(=O)OC[C@@H]1Cc1cncn1C` [PILOCARPINE HYDROCHLORIDE]: the GI50 in the experiment with SNB-19, with UACC-257, with DU-145, in the experiment on CCRF-CEM, in the experiment with NCI-H460 and in the experiment with MDA-MB-435 was > 100 µM (inactive) in each case. Besides, the GI50 in the experiment with SF-539, in the experiment with OVCAR-3, in the experiment with U-251, in the experiment with CAKI-1, in the experiment with TK-10 and in the experiment on NCI-H226 was > 100 µM (inactive) in each case. Also, the GI50 with 786-0, in the experiment with KM12, in the experiment with M14, with A549, in the experiment on SW-620 and in the experiment on SR was > 100 µM (inactive) in each case. The GI50 in the experiment with Malme-3M and with HCT-116 was > 100 µM (inactive) each time.
Turning to `Cc1ccc(S(=O)(=O)Oc2nc3ccccc3nc2OS(=O)(=O)c2ccc(C)cc2)cc1`, the GI50 with SNB-19 was > 100 µM (inactive); with UACC-257, > 100 µM (inactive); with DU-145, > 100 µM (inactive); with CCRF-CEM, 31.6 µM (inactive); in the experiment with NCI-H460 it was > 100 µM (inactive); with MDA-MB-435, > 100 µM (inactive). The GI50 in the experiment with SF-539 was > 100 µM (inactive); with OVCAR-3, > 100 µM (inactive); in the experiment with U-251, > 100 µM (inactive); with CAKI-1 it was 8.39 µM (inactive); with TK-10 it was > 100 µM (inactive); in the experiment on NCI-H226, > 100 µM (inactive). Further, the GI50 in the experiment with 786-0 is > 100 µM (inactive); in the experiment on KM12, > 100 µM (inactive); in the experiment with M14, 33.7 µM (inactive); in the experiment with A549, > 100 µM (inactive); in the experiment on SW-620, 25.9 µM (inactive); in the experiment with SR, 54.7 µM (inactive). Moreover, the GI50 with Malme-3M is 17 µM (inactive); with HCT-116, > 100 µM (inactive).
On to `COC(=O)c1cc2ccc(O)c(O)c2cn1`, for which the GI50 with SNB-19 is > 10 µM (inactive); in the experiment with UACC-257, 15.4 µM (inactive); in the experiment on DU-145, 67.8 µM (inactive); with CCRF-CEM it was 1.92 µM (inactive); in the experiment with NCI-H460 it was 19 µM (inactive); in the experiment on MDA-MB-435, 1.73 µM (inactive). Further, the GI50 with SF-539 was 18.7 µM (inactive); in the experiment on OVCAR-3, 17.1 µM (inactive); with U-251, 8.55 µM (inactive); in the experiment with CAKI-1, 13 µM (inactive); with TK-10 it was 20 µM (inactive); in the experiment on NCI-H226, 18.2 µM (inactive). Further, the GI50 was 2.7 µM (inactive) in the experiment with 786-0; 18.1 µM (inactive) in the experiment on KM12; 18.5 µM (inactive) with M14; 23.6 µM (inactive) in the experiment on A549; 16.6 µM (inactive) in the experiment with SW-620; 4.25 µM (inactive) in the experiment on SR. Further, the GI50 in the experiment on Malme-3M was 14.4 µM (inactive); with HCT-116, 15.7 µM (inactive).
Take `CCOC(=O)c1c(NC(=O)c2cccs2)sc2c1CCCC2`: the GI50 with SNB-19 was 30.1 µM (inactive); with UACC-257, > 100 µM (inactive); in the experiment with DU-145, > 80.4 µM (inactive); in the experiment on CCRF-CEM, > 100 µM (inactive); with NCI-H460, > 88.9 µM (inactive); in the experiment on MDA-MB-435, > 100 µM (inactive). For the same molecule, the GI50 was 24.4 µM (inactive) in the experiment on SF-539; 46.3 µM (inactive) in the experiment with OVCAR-3; 28.1 µM (inactive) in the experiment on U-251; 60.4 µM (inactive) in the experiment with CAKI-1; 45.8 µM (inactive) in the experiment on TK-10; > 38.6 µM (inactive) with NCI-H226. Further, the GI50 was 34.8 µM (inactive) in the experiment on 786-0; > 100 µM (inactive) in the experiment on KM12; > 100 µM (inactive) with M14; 55.5 µM (inactive) in the experiment on A549; > 100 µM (inactive) in the experiment on SW-620; > 80.9 µM (inactive) in the experiment on SR. Moreover, the GI50 is 29 µM (inactive) with Malme-3M and 46.9 µM (inactive) in the experiment with HCT-116.
`CC(=O)NC1CCC(NC(=O)OC(C)(C)C)C(NC(=O)OC(C)(C)C)C1` (stereo not given): the GI50 in the experiment on SNB-19, in the experiment on UACC-257, in the experiment with DU-145, with CCRF-CEM, with NCI-H460 and with MDA-MB-435 was > 100 µM (inactive) in each case. Moreover, the GI50 with SF-539, in the experiment on OVCAR-3, with U-251, in the experiment on CAKI-1, in the experiment with TK-10 and in the experiment with NCI-H226 was > 100 µM (inactive) in each case. Also, the GI50 in the experiment on 786-0, with KM12, in the experiment on M14, in the experiment with A549, in the experiment with SW-620 and with SR was > 100 µM (inactive) each time. In addition, the GI50 in the experiment on Malme-3M and in the experiment with HCT-116 was > 100 µM (inactive) each time.
In the case of `CCOC1=NC(C(F)(F)F)(C(F)(F)F)N=C(N2CCCCC2)O1`, the GI50 in the experiment on SNB-19, in the experiment on UACC-257, with DU-145, in the experiment with CCRF-CEM, in the experiment with NCI-H460 and with MDA-MB-435 was > 100 µM (inactive) each time. In addition, the GI50 in the experiment with SF-539, in the experiment on OVCAR-3, in the experiment on U-251, in the experiment with CAKI-1, in the experiment with TK-10 and in the experiment on NCI-H226 was > 100 µM (inactive) in each case. In addition, the GI50 in the experiment on 786-0 is > 100 µM (inactive); with KM12, > 100 µM (inactive); in the experiment with M14 it was > 100 µM (inactive); in the experiment with A549, > 100 µM (inactive); in the experiment on SW-620, > 100 µM (inactive); in the experiment with SR it was 59 µM (inactive). The GI50 with Malme-3M and with HCT-116 was > 100 µM (inactive) throughout.
For the molecule `Cc1cc(Cc2cc(C)cc(C(C)(C)C)c2O)c(O)c(Cc2cc(C)cc(C(C)(C)C)c2O)c1`, the GI50 in the experiment on SNB-19 is 4.11 µM (inactive); in the experiment with UACC-257 it was 2.29 µM (inactive); in the experiment with DU-145, 3.4 µM (inactive); with CCRF-CEM, 1.73 µM (inactive); in the experiment on NCI-H460, 1.57 µM (inactive); with MDA-MB-435 it was 3.12 µM (inactive). Moreover, the GI50 in the experiment with SF-539 was 2.51 µM (inactive); in the experiment with OVCAR-3 it was 2.69 µM (inactive); in the experiment with U-251, 2.7 µM (inactive); in the experiment with CAKI-1 it was 4.08 µM (inactive); with TK-10 it was 3.03 µM (inactive); in the experiment on NCI-H226, 3.24 µM (inactive). For the same molecule, the GI50 is 3.15 µM (inactive) with 786-0; 2.91 µM (inactive) in the experiment with KM12; 2.64 µM (inactive) with M14; 3.06 µM (inactive) with A549; 3.34 µM (inactive) in the experiment on SW-620; 2.54 µM (inactive) with SR. Besides, the values for the GI50 in the experiment on Malme-3M and in the experiment on HCT-116 were 2 µM (inactive) and 1.92 µM (inactive), respectively.
For `CC(C(=O)c1ccccc1)C(c1ccccc1)N1CCOCC1` (stereo not given), the GI50 is > 100 µM (inactive) in the experiment with SNB-19; > 100 µM (inactive) in the experiment on UACC-257; > 100 µM (inactive) in the experiment on DU-145; 36.1 µM (inactive) in the experiment with CCRF-CEM; > 100 µM (inactive) in the experiment on NCI-H460; > 100 µM (inactive) in the experiment with MDA-MB-435. The GI50 in the experiment on SF-539, in the experiment on OVCAR-3, in the experiment on U-251, in the experiment on CAKI-1, with TK-10 and with NCI-H226 was > 100 µM (inactive) in each case. For the same molecule, the GI50 in the experiment on 786-0, in the experiment with KM12, in the experiment with M14, in the experiment on A549, in the experiment with SW-620 and in the experiment with SR was > 100 µM (inactive) each time. Also, the GI50 in the experiment on Malme-3M and in the experiment with HCT-116 was > 100 µM (inactive) throughout.

These data come from ChEMBL document CHEMBL1201862, “PubChem BioAssay data set” (2004).
